Target: T1, GST-tagged-Wee1 kinase (Homo sapiens, UniProt P30291)
T1 construct: purchased Carnabio 05-177
Experiment: Wee1 time-resolved fluorescence equilibrium binding assay (displacement of Oregon Green-labeled ATP-competitive kinase probe)
Conditions: enzyme binding data; GST-tagged-Wee1 kinase 2 nM, fluorescent probe 300 nM, inhibitor 0.003 to 10 micromolar, 1 hour incubation; read-out: Wee-1 binding (Ki nM)
Procedure: Wee1 kinase was assayed using a time-resolved fluorescence equilibrium binding assay monitoring displacement of a rapidly reversible Oregon Green-labeled ATP-competitive kinase probe (N-(2-(2-(2-(4-(4-(5-chloro-4-(2-(1-hydroxycyclobutyl)thiazol-5-yl)-1H-pyrrolo[2,3-b]pyridin-2-yl)phenyl)piperazin-1-yl)ethoxy)ethoxy)ethyl)-2′,7′-difluoro-3′,6′-dihydroxy-3-oxo-3H-spiro[isobenzofuran-1,9′-xanthene]-5-carboxamide) by competitive Wee1 inhibitors.
Table 1 depicts enzyme binding data (Ki)for exemplary compounds.

T1 sequence (P30291 whole entry): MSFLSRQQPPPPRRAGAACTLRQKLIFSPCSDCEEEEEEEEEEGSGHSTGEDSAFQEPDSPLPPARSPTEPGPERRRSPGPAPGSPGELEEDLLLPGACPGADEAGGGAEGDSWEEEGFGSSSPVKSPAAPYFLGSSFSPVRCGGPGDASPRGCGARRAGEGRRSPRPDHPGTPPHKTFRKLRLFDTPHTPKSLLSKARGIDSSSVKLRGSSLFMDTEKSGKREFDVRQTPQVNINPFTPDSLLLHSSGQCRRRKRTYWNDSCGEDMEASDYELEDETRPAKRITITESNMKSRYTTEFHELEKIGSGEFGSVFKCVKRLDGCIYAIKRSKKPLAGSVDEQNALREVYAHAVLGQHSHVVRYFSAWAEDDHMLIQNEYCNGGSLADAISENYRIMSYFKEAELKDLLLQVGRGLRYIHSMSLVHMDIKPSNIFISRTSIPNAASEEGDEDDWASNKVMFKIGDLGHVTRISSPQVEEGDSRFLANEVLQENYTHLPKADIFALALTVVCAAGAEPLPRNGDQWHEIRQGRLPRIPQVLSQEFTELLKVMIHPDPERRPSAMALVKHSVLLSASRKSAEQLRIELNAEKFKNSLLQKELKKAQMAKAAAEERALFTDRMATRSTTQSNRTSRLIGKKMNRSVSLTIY

Structure (SMILES) | Ki
CN(C)CCCN1CCN(c2ccc(Nc3ncc4c(=O)n(-c5c(Cl)cccc5Cl)cc(CF)c4n3)cc2)CC1 [Example 140, 6-(2,6-dichlorophenyl)-2-[(4-{4-[3-(dimethylamino)propyl]piperazin-1-yl}phenyl)amino]-8-(fluoromethyl)pyrido[4,3-d]pyrimidin-5(6H)-one] | 0.2 nM
Cc1cn(-c2cccc3cccnc23)c(=O)c2cnc(Nc3ccc4c(c3)CN(C)CC43CC3)nc12 [Example 97, 8-methyl-2-[(2′-methyl-2′,3′-dihydro-1′H-spiro[cyclopropane-1,4′-isoquinolin]-7′-yl)amino]-6-(quinolin-8-yl)pyrido[4,3-d]pyrimidin-5(6H)-one] | 28.2 nM
CC(O)c1cn(-c2c(Cl)cccc2Cl)c(=O)c2cnc(Nc3ccc(N4CCN(C)CC4)cc3)nc12 (stereo not drawn) [Example 128, 6-(2,6-dichlorophenyl)-8-(1-hydroxyethyl)-2-{[4-(4-methylpiperazin-1-yl)phenyl]amino}pyrido[4,3-d]pyrimidin-5(6H)-one] | 2 nM
Cc1cn(-c2cc(Cl)ccc2Cl)c(=O)c2cnc(Nc3ccc4c(c3)CNCC4)nc12 [Example 102, 6-(2,5-dichlorophenyl)-8-methyl-2-(1,2,3,4-tetrahydroisoquinolin-7-ylamino)pyrido[4,3-d]pyrimidin-5(6H)-one] | 17.8 nM
C=Cc1cn(-c2c(F)cccc2Cl)c(=O)c2cnc(Nc3ccc(C4CCN(C)CC4)cc3)nc12 [Example 61, 6-(2-chloro-6-fluorophenyl)-8-ethenyl-2-{[4-(1-methylpiperidin-4-yl)phenyl]amino}pyrido[4,3-d]pyrimidin-5(6H)-one] | 0.3 nM
Cc1cn(-c2c(Cl)cccc2Cl)c(=O)c2cnc(Nc3ccc(C4CCN(C)CC4)cc3)nc12 [Example 78, 6-(2,6-dichlorophenyl)-8-methyl-2-{[4-(1-methylpiperidin-4-yl)phenyl]amino}pyrido[4,3-d]pyrimidin-5(6H)-one] | 0.2 nM
CN1Cc2cc(Nc3ncc4c(=O)n(-c5c(Cl)cccc5Cl)cc(CO)c4n3)ccc2C2(CC2)C1 [Example 53, 6-(2,6-dichlorophenyl)-8-(hydroxymethyl)-2-[(2′-methyl-2′,3′-dihydro-1′H-spiro[cyclopropane-1,4′-isoquinolin]-7′-yl)amino]pyrido[4,3-d]pyrimidin-5(6H)-one] | 0.3 nM
CN(C)C1Cc2ccc(Nc3ncc4c(=O)n(-c5c(Cl)cccc5Cl)cc(CF)c4n3)cc2C1 (stereo not drawn) [Example 112, 6-(2,6-dichlorophenyl)-2-{[2-(dimethylamino)-2,3-dihydro-1H-inden-5-yl]amino}-8-(fluoromethyl)pyrido[4,3-d]pyrimidin-5(6H)-one] | 0.4 nM
Cc1cn(-c2c(F)cccc2Cl)c(=O)c2cnc(Nc3ccc(C4CCN(C)CC4)cc3)nc12 [Example 71, 6-(2-chloro-6-fluorophenyl)-8-methyl-2-{[4-(1-methylpiperidin-4-yl)phenyl]amino}pyrido[4,3-d]pyrimidin-5(6H)-one] | 1.2 nM
Cc1cn(-c2c(F)cccc2Cl)c(=O)c2cnc(Nc3ccc4c(c3)CN(C)CC4(C)C)nc12 [Example 70, 6-(2-chloro-6-fluorophenyl)-8-methyl-2-[(2,4,4-trimethyl-1,2,3,4-tetrahydroisoquinolin-7-yl)amino]pyrido[4,3-d]pyrimidin-5(6H)-one] | 1.6 nM
Cc1cccc(C)c1-n1cc(C)c2nc(Nc3ccc(N4CCC(N(C)C)CC4)cc3)ncc2c1=O [Example 89, 2-({4-[4-(dimethylamino)piperidin-1-yl]phenyl}amino)-6-(2,6-dimethylphenyl)-8-methylpyrido[4,3-d]pyrimidin-5(6H)-one] | 0.897 nM
Cc1cn(-c2c(Cl)cccc2Cl)c(=O)c2cnc(Nc3ccc(N4CCN(CCN(C)C)CC4)cc3)nc12 [Example 138, 6-(2,6-dichlorophenyl)-2-[(4-{4-[2-(dimethylamino)ethyl]piperazin-1-yl}phenyl)amino]-8-methylpyrido[4,3-d]pyrimidin-5(6H)-one] | 0.2 nM

Further compounds by falling Ki, results first:

Ki | Structure (SMILES)
5.1 nM | Cc1cn(-c2c(F)cccc2Cl)c(=O)c2cnc(Nc3ccc4c(c3)CCNC4)nc12 [Example 72, 6-(2-chloro-6-fluorophenyl)-8-methyl-2-(1,2,3,4-tetrahydroisoquinolin-6-ylamino)pyrido[4,3-d]pyrimidin-5(6H)-one]
2 nM | Cc1cn(-c2ccccc2O)c(=O)c2cnc(Nc3ccc4c(c3)CNCC4)nc12 [Example 117, 6-(2-hydroxyphenyl)-8-methyl-2-(1,2,3,4-tetrahydroisoquinolin-7-ylamino)pyrido[4,3-d]pyrimidin-5(6H)-one]
1.8 nM | C=Cc1cn(-c2c(Cl)cccc2Cl)c(=O)c2cnc(Nc3ccc(N4CC5CNCC5C4)cc3)nc12 (stereo not drawn) [Example 52, 6-(2,6-dichlorophenyl)-8-ethenyl-2-{[4-(hexahydropyrrolo[3,4-c]pyrrol-2(1H)-yl)phenyl]amino}pyrido[4,3-d]pyrimidin-5(6H)-one]
1.8 nM | Cc1cn(-c2c(Cl)cccc2Cl)c(=O)c2cnc(Nc3ccc(S(=O)(=O)CCN(C)C)cc3)nc12 [Example 96, 6-(2,6-dichlorophenyl)-2-[(4-{[2-(dimethylamino)ethyl]sulfonyl}phenyl)amino]-8-methylpyrido[4,3-d]pyrimidin-5(6H)-one]
0.9 nM | Cc1cn(-c2ccccc2Cl)c(=O)c2cnc(Nc3ccc(N4CCC(N(C)C)CC4)cc3)nc12 [Example 99, 6-(2-chlorophenyl)-2-({4-[4-(dimethylamino)piperidin-1-yl]phenyl}amino)-8-methylpyrido[4,3-d]pyrimidin-5(6H)-one]
0.9 nM | Cc1cccc(F)c1-n1cc(C)c2nc(Nc3ccc(N4CCC(N(C)C)CC4)cc3)ncc2c1=O [Example 104, 2-({4-[4-(dimethylamino)piperidin-1-yl]phenyl}amino)-6-(2-fluoro-6-methylphenyl)-8-methylpyrido[4,3-d]pyrimidin-5(6H)-one]
0.5 nM | Cc1cn(-c2c(Cl)cccc2Cl)c(=O)c2cnc(Nc3ccc(N[C@H]4CC[C@@H](N(C)C)CC4)cc3)nc12 [Example 133, 6-(2,6-dichlorophenyl)-2-[(4-{[cis-4-(dimethylamino)cyclohexyl]amino}phenyl)amino]-8-methylpyrido[4,3-d]pyrimidin-5(6H)-one]
0.5 nM | C=Cc1cn(-c2c(Cl)cccc2Cl)c(=O)c2cnc(Nc3ccc(N4CCC(N(C)C)CC4)cc3)nc12 [Example 50, 6-(2,6-dichlorophenyl)-2-({4-[4-(dimethylamino)piperidin-1-yl]phenyl}amino)-8-ethenylpyrido[4,3-d]pyrimidin-5(6H)-one]
0.5 nM | Cc1cn(-c2ccccc2Cl)c(=O)c2cnc(Nc3ccc4c(c3)CNCC4)nc12 [Example 98, 6-(2-chlorophenyl)-8-methyl-2-(1,2,3,4-tetrahydroisoquinolin-7-ylamino)pyrido[4,3-d]pyrimidin-5(6H)-one]
0.4 nM | Cc1cn(-c2c(Cl)cccc2Cl)c(=O)c2cnc(Nc3ccc(OC4CCN(C)CC4)cc3)nc12 [Example 122, 6-(2,6-dichlorophenyl)-8-methyl-2-({4-[(1-methylpiperidin-4-yl)oxy]phenyl}amino)pyrido[4,3-d]pyrimidin-5(6H)-one]
0.4 nM | O=c1c2cnc(Nc3ccc4c(c3)CCNC4)nc2c(-c2ncc[nH]2)cn1-c1c(Cl)cccc1Cl [Example 81, 6-(2,6-dichlorophenyl)-8-(1H-imidazol-2-yl)-2-(1,2,3,4-tetrahydroisoquinolin-6-ylamino)pyrido[4,3-d]pyrimidin-5(6H)-one]
0.4 nM | CN(C)C1Cc2ccc(Nc3ncc4c(=O)n(-c5c(Cl)cccc5Cl)cc(CO)c4n3)cc2C1 (stereo not drawn) [Example 54, 6-(2,6-dichlorophenyl)-2-{[2-(dimethylamino)-2,3-dihydro-1H-inden-5-yl]amino}-8-(hydroxymethyl)pyrido[4,3-d]pyrimidin-5(6H)-one]
0.328 nM | CN(C)C1CCN(c2ccc(Nc3ncc4c(=O)n(-c5c(Cl)cccc5Cl)cc(C(F)F)c4n3)cc2)CC1 [Example 84, 6-(2,6-dichlorophenyl)-8-(difluoromethyl)-2-({4-[4-(dimethylamino)piperidin-1-yl]phenyl}amino)pyrido[4,3-d]pyrimidin-5(6H)-one]
0.3 nM | C=Cc1cn(-c2c(F)cccc2Cl)c(=O)c2cnc(Nc3ccc(N4CCN(C)CC4)cc3)nc12 [Example 62, 6-(2-chloro-6-fluorophenyl)-8-ethenyl-2-{[4-(4-methylpiperazin-1-yl)phenyl]amino}pyrido[4,3-d]pyrimidin-5(6H)-one]
0.2 nM | Cc1cn(-c2c(O)cccc2Cl)c(=O)c2cnc(Nc3ccc4c(c3)CNC4(C)C)nc12 [Example 136, 6-(2-chloro-6-hydroxyphenyl)-2-[(1,1-dimethyl-2,3-dihydro-1H-isoindol-5-yl)amino]-8-methylpyrido[4,3-d]pyrimidin-5(6H)-one]
0.193 nM | Cc1cccc(Cl)c1-n1cc(C)c2nc(Nc3ccc4c(c3)CN(C)CC43CC3)ncc2c1=O [Example 90, 6-(2-chloro-6-methylphenyl)-8-methyl-2-[(2′-methyl-2′,3′-dihydro-1′H-spiro[cyclopropane-1,4′-isoquinolin]-7′-yl)amino]pyrido[4,3-d]pyrimidin-5(6H)-one]
0.1 nM | Cc1cn(-c2c(Cl)cccc2Cl)c(=O)c2cnc(Nc3ccc(NC4CCN(C)CC4)cc3)nc12 [Example 116, 6-(2,6-dichlorophenyl)-8-methyl-2-({4-[(1-methylpiperidin-4-yl)amino]phenyl}amino)pyrido[4,3-d]pyrimidin-5 (6H)-one]
0.1 nM | Cc1cn(-c2c(Cl)cccc2Cl)c(=O)c2cnc(Nc3ccc4c(c3)CNC4(C)C)nc12 [Example 121, 6-(2,6-dichlorophenyl)-2-[(1,1-dimethyl-2,3-dihydro-1H-isoindol-5-yl)amino]-8-methylpyrido[4,3-d]pyrimidin-5(6H)-one]

From patent publication US9718821B2, “Pyridopyrimidinone inhibitors of kinases” (AbbVie Inc., priority 2012, dated 2017)
